From article PMC4627759, “Identification of Host-Plant Volatiles and Characterization of Two Novel General Odorant-Binding Proteins from the Legume Pod Borer, Maruca vitrata Fabricius (Lepidoptera: Crambidae)” (PLoS ONE, 2015)
“Also recorded” adds a separate entry of the source. Where two headings read alike, the source gives them in different places.

How the values were obtained:
[1] = tested on: antennae of Maruca vitrata females; assay: GC-EAD: antennal response of female moths to floral volatiles; conditions: volatiles of V. unguiculata flower buds/flowers
Procedure: Headspace collections were initially analyzed by an Agilent Technologies 7890A GC with a flame ionization detector (FID) coupled with an electroantennogram detector (Syntech, Hilversum, The Netherlands) followed the procedures as described by with some modifications. The column was kept at 50°C for 1 min, increased to 200°C at a rate of 10°C/min and then increased to 240°C at a rate of 5°C/min, which was maintained for 5 min. The outlet of the GC column was split with a specific Electronic Pressure Control splitter (Agilent) to obtain the requested flow accuracy in a ratio of 1: 3 for the FID and the cut antenna. Volatile compounds eluting from the GC column were led to the mounted antenna through a heated (230°C) transfer line (TC-02, Syntech, Hilversum, the Netherlands). Each antenna was prepared by cutting both distal and basic segments and was immediately mounted on the holder using conductive gel (Spectra® 360; Parker Laboratories, Fairfield, New Jersey, USA). Each sample was tested five times. Each tested antenna was derived from a different female and used only once. Synthetic chemicals used in the experiments were purchased from Sigma Chemical Co., J&K Scientific Ltd., Tokyo Chemical Industry Co., Sinopharm Chemical Reagent Co. and Aladdin Chemistry Co., respectively.

MvitGOBP1 = MvitGOBP1 (Maruca vitrata, UniProt A0A0S1S6H9); assay: Fluorescence competitive binding assay (1-NPN displacement) with recombinant MvitGOBP1
Chain of MvitGOBP1 (A0A0S1S6H9 entry or part of it): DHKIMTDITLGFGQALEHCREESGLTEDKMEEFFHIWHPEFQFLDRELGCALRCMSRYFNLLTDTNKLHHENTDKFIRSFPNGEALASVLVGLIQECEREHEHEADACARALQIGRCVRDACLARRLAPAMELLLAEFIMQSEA
Procedure: (§1) Fluorescence binding activity was determined as described by previous study. Emission fluorescence spectra were recorded on a Hitachi F-4500 at 25°C in a right angle configuration, with a 1 cm light path quartz cuvette and 5 nm slits for both excitation and emission. The protein was dissolved in 20 mM Tris-HCl buffer, pH 7.4, and ligands were added as 1 mM methanol solutions. To measure the affinity of the fluorescent ligand 1-NPN to MvitGOBP1-2, a 2 μM protein solution in 20 mM Tris-HCl (pH 7.4) was titrated with aliquots of […] ligand in methanol to final concentrations of 2–16 μM. The probe was excited at 337 nm and emission spectra were recorded between 380 and 450 nm. The affinities of the other ligands were measured in competitive binding assays, where a solution of the protein and 1-NPN, both at a concentration of 2 μM, was titrated with 1 mM methanol solutions of each competitor over concentration ranges of 2–24 μM, depending on the ligand. The dissociation constant for 1-NPN and the stoichiometry of binding were obtained by processing the data using Prism software. Dissociation constants of the competitors were calculated from the corresponding IC50 values (concentrations of ligands halving the initial fluorescence value of 1-NPN), using the equation: Ki = [IC50] / (1 + [1-NPN] / K1-NPN), where [1-NPN] is the free concentration of 1-NPN and K1-NPN is the dissociation constant of the complex protein/1-NPN.

MvitGOBP2 = MvitGOBP2 (Maruca vitrata, UniProt A0A088MJX9); assay: Fluorescence competitive binding assay (1-NPN displacement) with recombinant MvitGOBP2; conditions: for binding ability to MvitGOBP2 (in words): among the 17 tested compounds
Chain of MvitGOBP2 (A0A088MJX9 entry or part of it): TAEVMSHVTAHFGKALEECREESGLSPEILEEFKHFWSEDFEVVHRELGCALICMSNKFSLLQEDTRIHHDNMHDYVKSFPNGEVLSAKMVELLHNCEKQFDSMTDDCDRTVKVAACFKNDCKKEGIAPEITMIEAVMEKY
Procedure: as §1

Maruca vitrata females = assay: Field trapping experiment with volatile-baited Delta-traps; type: in vivo; conditions: 100 μl of 100 ng/μl in hexane on rubber septa, one week, six traps, Student's t-test
Procedure: Field trap experiments were determined as described by Wang et al. Custom-built Delta-traps with sticky inserts and rubber septa purchased from Pherobio Technology Co. Ltd. were used in the field experiments during the moth flight season in 2014. Traps were suspended from iron stakes and placed approximately 15 m apart. Key components of host-plant volatiles were prepared in hexane, and 100 μl solution (100 ng/μl) were added to rubber septa to be used as lures. Hexane was used as blank control and six trap replicates were used in the field experiment. Traps were checked everyday and the number of female moths per trap was determined for one week. Statistical analyses of trap data were used SPSS (SPSS Inc., Chicago, Illinous, U.S.A.), the significance of the differences between tested group and control group was evaluated by Student's t-test at P < 0.05 and P < 0.01.

M. vitrata females = tested on: M. vitrata females; parameters: method as in earlier work; conditions: cited from earlier work
[2] = dissociation constant calculated from IC50, 1-NPN competition, read-out: MvitGOBP1 Ki
[3] = ligand concentration displacing 50% of fluorescence of MvitGOBP1/1-NPN complex, protein and 1-NPN 2 μM, pH 7.4, 25°C, read-out: MvitGOBP1 IC50
[4] = dissociation constant calculated from IC50, 1-NPN competition, read-out: MvitGOBP2 Ki
[5] = ligand concentration displacing 50% of fluorescence of MvitGOBP2/1-NPN complex, protein and 1-NPN 2 μM, pH 7.4, 25°C, read-out: MvitGOBP2 IC50
[6] = '-' = exceeded 50 μM for half-maximal inhibition, read-out: MvitGOBP2 IC50 (class symbol)

Structure (SMILES) | EAD/EAG response of female antennae (in words) [1] | Ki (MvitGOBP1; [2]) | IC50 (MvitGOBP1; [3]) | Ki (MvitGOBP2; [4]) | IC50 (MvitGOBP2; [5]) | also measured
CC(=O)c1ccc(C)cc1C [1-(2,4-Dimethylphenyl)-ethanone] | responded | – | – | – | – | –
CCc1ccc(C(C)=O)cc1 [1-(4-ethylphenyl)-ethanone] | responded; also recorded: highest EAD responses | – | – | – | – | –
CCCCOC(=O)CCC [Compound 1, Butanoic acid butyl ester] | responded | 12.5 µM | 16.8 µM | 29.7 µM | 44.8 µM | female moths caught in traps vs blank lure (Maruca vitrata females): significant difference compared with the blank lure
Oc1cccc2[nH]ccc12 [Compound 1H-indol-4-ol] | responded | – | – | – | – | female moths caught in traps vs blank lure (Maruca vitrata females): significant difference compared with the blank lure; attraction of females in wind tunnel (in words) (M. vitrata females): significantly attracted many M. vitrata females
C=C(C)[C@H]1CC=C(C)CC1 [Compound 2, Limonene] | responded | 13.8 µM | 18.6 µM | 29.2 µM | 44.1 µM | female moths caught in traps vs blank lure (Maruca vitrata females; listed as Limonene): most female moths were trapped; female moths caught in traps vs blank lure (Maruca vitrata females; listed as limonene): significant difference compared with the blank lure; also recorded: highest trapping effect; attraction of females in wind tunnel (in words) (M. vitrata females): significantly attracted many M. vitrata females; also recorded: strong behavioral activity
CCc1cccc(CC)c1 [Compound 3, 1,3-diethylbenzene] | – | 28.8 µM | 38.7 µM | 22.4 µM | 33.8 µM | –
CCc1ccc(CC)cc1 [Compound 4, 1,4-diethylbenzene] | – | 19.2 µM | 25.8 µM | 27.1 µM | 40.9 µM | –
CCc1ccc(C=O)cc1 [Compound 4-ethylbenzaldehyde] | responded | – | – | – | – | –
CCC(=O)c1ccc(CC)cc1 [Compound 4-ethylpropiophenone] | – | – | – | – | – | female moths caught in traps vs blank lure (Maruca vitrata females): significant difference compared with the blank lure
O=Cc1ccccc1 [Compound 5, Benzaldehyde] | responded | – | – | – | – | IC50 (MvitGOBP1): 22.4 µM; Ki (MvitGOBP1): 16.6 µM; IC50 (MvitGOBP2): > 50 µM
CC(=O)c1ccccc1 [Compound 6, Acetophenone] | – | 21.2 µM | 28.5 µM | 26.5 µM | 40 µM | –
O=Cc1ccccc1O [Compound 7, 2-hydroxybenzaldehyde] | – | – | – | – | – | IC50 (MvitGOBP1): 20.8 µM; Ki (MvitGOBP1): 15.5 µM; IC50 (MvitGOBP2): 41.9 µM; Ki (MvitGOBP2): 22.9 µM
CCc1ccc(C=O)cc1 [Compound 8, 4-ethylbenzaldehyde] | – | 14.2 µM | 19.1 µM | 33.1 µM | 50 µM | –
CCCCCCCCOC(=O)CCC [Compound 9, Butanoic acid octyl ester] | – | 26.8 µM | 36.1 µM | 8.5 µM | 12.9 µM | binding ability to MvitGOBP2 (in words) (MvitGOBP2): very great bind ability; EAD/EAG response of female antennae (in words) ([1]; listed as Butanoic acid octyl ester): EAG response was weaker than other plant volatiles; EAD/EAG response of female antennae (in words) ([1]; listed as butanoic acid octyl ester): responded; female moths caught in traps vs blank lure (Maruca vitrata females): significant difference compared with the blank lure
CCc1ccc(C(C)=O)cc1 [Compound 10, 1-(4-ethylphenyl)-ethanone] | – | – | – | – | – | IC50 (MvitGOBP1): 22.9 µM; Ki (MvitGOBP1): 17 µM; IC50 (MvitGOBP2): 45 µM; Ki (MvitGOBP2): 29.8 µM
CC(C=O)Cc1ccccc1 (centres unmarked) [Compound 11, 2-methyl-3-phenylpropanal] | responded; also recorded: high electrophysiological responses | 17.8 µM | 23.9 µM | 3.81 µM | 6.98 µM | binding ability to MvitGOBP2 (in words) (MvitGOBP2): highest bind ability; female moths caught in traps vs blank lure (Maruca vitrata females): significant difference compared with the blank lure; attraction of females in wind tunnel (in words) (M. vitrata females): attract significantly M. vitrata females
CC(=O)c1ccc(C)cc1C [Compound 12, 1-(2,4-Dimethylphenyl)-ethanone] | – | 18 µM | 24.2 µM | – | – | IC50 (MvitGOBP2; [6]): > 50 µM
CCC(=O)c1ccc(CC)cc1 [Compound 13, 4-ethylpropiophenone] | – | 15.2 µM | 20.4 µM | 26 µM | 39.3 µM | –
CC(=O)c1ccc(O)c(C)c1 [Compound 14, 4-hydroxy-3-methylacetophenone] | – | 18.3 µM | 24.6 µM | 17.1 µM | 25.8 µM | –
Oc1cccc2[nH]ccc12 [Compound 15, 1H-indol-4-ol] | – | 10.9 µM | 14.6 µM | – | – | IC50 (MvitGOBP2; [6]): > 50 µM
CC(=O)c1ccc(C(C)=O)cc1 [Compound 16, 1,4-diacetyl benzene] | – | – | – | – | – | IC50 (MvitGOBP1): 30.5 µM; Ki (MvitGOBP1): 22.7 µM; IC50 (MvitGOBP2): 49.6 µM; Ki (MvitGOBP2): 32.9 µM
Cc1cc(C)cc(C(C)(C)C)c1 [Compound 17, 1-(1,1-Dimethylethyl)-3,5-dimethylbenzene] | – | 16.8 µM | 22.6 µM | – | – | IC50 (MvitGOBP2; [6]): > 50 µM
